Data published in PMC11259170, “Small-molecule probe for IBD risk variant GPR65 I231L alters cytokine signaling networks through positive allosteric modulation” (Science Advances, 2024).
Read-outs that look alike come from different tables or passages of the source.

Experiments:
Lipophilicity (logD) = assay type: physicochemical; conditions: pH 7.4; pH7.4; read-out: LogD (pH7.4)
human PBMCs = assay: cAMP detection in human PBMCs; assay type: cell-based; conditions: 0 to 50 μM, 30 min, pH 7.2
Protocol: Human blood samples were collected from healthy donors at the Blood Donor Center at Massachusetts General Hospital in compliance with all relevant ethical regulations and according to protocol 2018P001504 approved by the Mass General Brigham Institutional Review Board. Donors provided informed written consent. Human PBMCs were isolated by density gradient separation using Ficoll-Paque PLUS (VWR- GE Life Sciences, catalog no. 17144002), as previously described ([54]). Isolated PBMCs were incubated overnight in DMEM (10% FBS, 0.2% sodium bicarbonate, 1X Glutamax) at 37°C, 5% CO2. Human monocytes were isolated from an unpurified Buffy Coat using RosetteSep human monocyte enrichment cocktail (StemCell Technologies, 15068) and frozen same day in FBS with 10% DMSO.
cAMP was measured in cells using the Lance Ultra cAMP Kit. Compound dose curves were prepared in an assay buffer, which was made according to the manufacturer’s guidelines using DMEM instead of HBSS. Assay buffer was adjusted to desired pH using 1 M HCl or NaOH. PBMCs were collected, centrifuged, and resuspended in assay buffer. Dose curves and cells were added to a white opaque OptiPlate (PerkinElmer, 6007290) at a density of 20,000 cells per well. […] Eu-cAMP tracer and FRET emissions were read using a PerkinElmer EnVision Multimode plate reader (ENVISION21040010). […]

[1] = test system: GPR65 KO HeLa cells + pLX empty vector; assay: cAMP detection, GPR65 KO HeLa + empty pLX vector (null control); assay type: cell-based, human
Protocol: (§1) The Lance Ultra cAMP Kit (PerkinElmer, TRF0264) was used for cAMP detection, and included the following reagents: ULight anti-cAMP antibody, Eu-cAMP tracer, 7.5% BSA Stabilizer solution, and cAMP detection buffer. Stimulation buffer was prepared as described by the kit manufacturer as follows: Hanks buffered saline solution (HBSS, Life Technologies, 14025-126) containing 0.5 mM IBMX (3-isobutyl-1-methylxanthine, Sigma-Aldrich, I7018) and buffered with 1 M Hepes (15630-080). Stimulation buffer was then adjusted to pH 7.1 using 12 N HCl. HeLa cells were lifted using Versene and then suspended at 2.5 × 10^5 cells/ml in stimulation buffer. Cells were then plated at 20 μl per well (5000 cells per well) in white, opaque OptiPlate 384-well MicroPlates (PerkinElmer, 6007299) using a Thermo Fisher Scientific Combi liquid dispenser. Compounds, stored at 5 mM in DMSO for the primary screen, or in a range of concentrations from 39 μM to 20 mM for dose curves, were transferred by the CyBio CyBi-Well Vario pin transfer tool with 100-nl pins (V&P FP1NS50H, 50-nl slot, 0.457-mm diameter, hydrophobic coated), into each assay well, 100 nl per well for a final assay concentration of 25 μM for the primary screen, or 195 nM to 100 μM for dose curves. Assay plates were then incubated at RT for 30 min. Eu-cAMP tracer was diluted 1:33 into detection buffer and the final solution then distributed into assay wells, 5 μl per well. ULight anti-cAMP antibody was diluted 1:100 into detection buffer, then distributed into assay wells, also 5 μl per well. Assay plates were then incubated at RT in the dark for 1 hour. Eu-cAMP tracer and Förster resonance energy transfer (FRET) emissions were then read using a PerkinElmer EnVision Multimode plate reader (ENVISION21040010), exciting each well at 320 nm [UV2 (TRF) 320 filter] and reading emissions at 615 nm (Europium 615 filter) and 665 nm (APC665 filter). Data analysis was performed using Genedata Screener and GraphPad Prism.
(§2) HeLa KO cell lines were generated using the px330 plasmid CRISPR system as previously described ([18]). Briefly, HeLa cells were transfected with a Cas9 vector containing a gene-specific single-guide RNA to target the GPR65 coding exon. Forty-eight to 72 hours after transfection, single clones were obtained through limiting dilution and then sequenced to validate the KO. Reconstituted cell lines were produced by transducing KO cells with empty lentivirus or lentivirus containing hGPR65 or mGPR65. After 48 hours, cells were treated with puromycin (3 μg/ml; InvivoGen, ant-pr-1) and resistant cells were used in experiments.

[2] = Solubility in phosphate buffer; assay type: physicochemical; conditions: read-out: Solubility
human GPR4 (hGPR4) = target: T1, human GPR4 (hGPR4) (Homo sapiens, UniProt P46093); assay: cAMP detection in HeLa expression cell line, hGPR4; assay type: cell-based; conditions: highest concentration tested
T1 construct: expressed in transfected cells; host or cells: HeLa (ATCC CCL-2), lentiviral transduction, pLX317
Protocol: HeLa stable expression cell lines were produced by lentiviral transduction. Briefly, lentiviral plasmids for each GPCR with a C-terminal V5 Tag ([…]) were made in a pLX317 backbone using competent Escherichia coli (New England Biolabs, C3050H). Lenti-X 293 T (Takara, 632810) cells were transfected with the lentiviral plasmids to produce virus. Low-passage HeLa cells (American Type Culture Collection, CCL-2) were then transduced with lentivirus. After 48 hours, HeLa cells were cultured under selection with puromycin (3 μg/ml) and allowed to recover and expand before storing stocks in liquid nitrogen.
cAMP was measured in cells using the Lance Ultra cAMP Kit. HeLa cells were cultured under puromycin (3 μg/ml) selection. One day before the experiment, cells were seeded in T75 flasks and allowed to adhere overnight. On the day of the experiment, cells were washed twice with Dulbecco’s PBS and lifted using prewarmed 1× versene solution (Gibco, 15040066). Cells were counted in HBSS (Gibco, 14025092) and then resuspended in stimulation buffer prepared according to the manufacturer’s instructions and adjusted to pH 7.2 using 1 M sodium hydroxide. Cells were added to the plate at a density of 1500 cells per well in white opaque 384-well assay ready microplates containing 100 nl of 10 mM compound in DMSO. Cells were stimulated for 30 min at RT, then lysed and incubated with detection reagents for 1 hour in the dark at RT. Plates were read on BMG Labtech PHERAstar FSX (excitation, 337 nm; emission, 620 and 665 nm). Data analysis was performed using GraphPad Prism.

hGPR65 [3] = target: T2, hGPR65 (Homo sapiens, UniProt Q8IYL9); assay: cAMP detection in HeLa expression cell line, hGPR65; assay type: cell-based; conditions: for Emax: HeLa, relative to 100uM forskolin (100%) and DMSO (0%), read-out: hGPR Max Activity %
T2 construct: expressed in transfected cells; host or cells: HeLa (ATCC CCL-2), lentiviral transduction, pLX317
Method in brief: (§3)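 Compound was dispensed from a 10 mM DMSO stock, and puromycin-selected HeLa lines carrying lentiviral V5-tagged receptor were added at 1500 cells/well in pH 7.2 stimulation buffer. After 30 min stimulation at room temperature, cells were lysed and detection ran 1 h in the dark before cAMP TR-FRET reading.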

hGPR65 [4] = target: T2, hGPR65; assay: cAMP detection (Lance Ultra), GPR65 KO HeLa reconstituted with hGPR65; 21K screen dose confirmation; assay type: cell-based
mGPR65 = target: T3, mGPR65 (Mus musculus, UniProt Q61038); assay: cAMP detection in HeLa expression cell line, mGPR65; assay type: cell-based; conditions: for Emax: HeLa, relative to 100uM forskolin (100%) and DMSO (0%), read-out: mGPR Max Activity %; for EC50: mGPR EC50 (uM)
T3 construct: expressed in transfected cells; host or cells: HeLa (ATCC CCL-2), lentiviral transduction, pLX317
Method in brief: as §3

hGPR65 [5] = target: T2, hGPR65; assay: cAMP detection (Lance Ultra), GPR65 KO HeLa reconstituted with hGPR65; 21K screen dose confirmation; assay type: cell-based; conditions: primary hit validation
Protocol: as §1, §2

T3 sequence (Q61038 whole entry): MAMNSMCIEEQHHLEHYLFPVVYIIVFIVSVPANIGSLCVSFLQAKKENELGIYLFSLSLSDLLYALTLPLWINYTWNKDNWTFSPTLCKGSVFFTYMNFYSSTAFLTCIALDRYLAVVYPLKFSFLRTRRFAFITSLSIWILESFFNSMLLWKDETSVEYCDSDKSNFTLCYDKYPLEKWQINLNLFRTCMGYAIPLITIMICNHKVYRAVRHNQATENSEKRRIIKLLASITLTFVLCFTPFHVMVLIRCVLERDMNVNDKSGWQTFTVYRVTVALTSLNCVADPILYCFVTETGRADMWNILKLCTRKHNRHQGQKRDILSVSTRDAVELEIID
T2 sequence (Q8IYL9 whole entry): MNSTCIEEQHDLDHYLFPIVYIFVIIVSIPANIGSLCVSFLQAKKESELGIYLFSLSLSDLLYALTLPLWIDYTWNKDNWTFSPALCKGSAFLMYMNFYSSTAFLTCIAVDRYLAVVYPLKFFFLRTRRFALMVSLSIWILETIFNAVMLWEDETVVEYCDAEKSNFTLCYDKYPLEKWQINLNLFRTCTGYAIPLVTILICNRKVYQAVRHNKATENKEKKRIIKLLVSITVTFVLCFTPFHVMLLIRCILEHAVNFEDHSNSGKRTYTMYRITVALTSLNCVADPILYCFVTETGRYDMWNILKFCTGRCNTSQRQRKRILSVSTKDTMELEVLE
T1 sequence (P46093 whole entry): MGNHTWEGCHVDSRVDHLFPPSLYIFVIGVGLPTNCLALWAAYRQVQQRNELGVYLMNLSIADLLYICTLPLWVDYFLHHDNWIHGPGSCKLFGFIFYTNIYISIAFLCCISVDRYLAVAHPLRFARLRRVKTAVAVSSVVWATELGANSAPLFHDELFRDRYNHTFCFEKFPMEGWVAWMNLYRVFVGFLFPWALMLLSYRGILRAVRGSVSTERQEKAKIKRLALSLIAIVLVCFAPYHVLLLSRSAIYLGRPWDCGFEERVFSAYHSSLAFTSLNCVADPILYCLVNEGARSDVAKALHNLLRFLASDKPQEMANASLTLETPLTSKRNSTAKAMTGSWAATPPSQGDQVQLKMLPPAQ

SMILES: COCc1ccc(-c2cc(O)n3ncc(C(=O)Nc4ccc(C)cc4)c3n2)cc1 [BRD2813, COCc1ccc(cc1)-c1cc(O)n2ncc(C(=O)Nc3ccc(C)cc3)c2n1]
- logD (Lipophilicity (logD)): > 4.65
- cAMP production in human PBMCs, compared (human PBMCs): outperformed BTB09089
- EC50 ([1]; Homo sapiens, 0.5 h, HeLa GPR65 KO + pLX, pH 7.1, 30 min, normalized to DMSO and 100 μM forskolin): > 100000 nM
- cAMP production in control cells ([1]; primary hit validation): without inducing cAMP production
- solubility [2]: < 1.56 µM
- cAMP relative to DMSO in the hGPR4 cells (human GPR4 (hGPR4)): decrease in cAMP
- Emax (hGPR65 [3]; 1st hGPR column pair, NA = no activity): 78.8%
- Emax (hGPR65 [3]; 2nd hGPR column pair, NA = no activity): 79.2%
- EC50 (hGPR65 [3]; hGPR EC50 (uM), NA = no activity): 0.866 µM
- EC50 (hGPR65 [3]; hGPR EC50 (uM), pH 7.2, 30 min): 1.2 µM
- EC50 (hGPR65 [3]; hGPR EC50, NA = no activity): 0.993 µM
- EC50 (hGPR65 [3]; hGPR EC50, pH 7.2, 30 min): 0.724 µM
- pH of greatest compound effect (hGPR65 [4]; 0-50 μM, pH curves): between pH 7.1 and 7.3
- cAMP response, BRD2813 compared with BTB09089 (hGPR65 [4]; 0 to 50 μM, pH 7.2): greater cAMP response
- shift in the pH response curve of GPR65 (hGPR65 [4]; increasing concentrations, 0 to 50 μM): leftward shift
- Emax (mGPR65; 2nd mGPR column pair, NA = no activity): 39.6%
- Emax (mGPR65; NA = no activity): 35.8%
- EC50 (mGPR65; first pair of columns, pH 7.2, 30 min): 0.942 µM
- EC50 (mGPR65; second pair of columns, pH 7.2, 30 min): 0.406 µM
- EC50 (mGPR65; NA = no activity): 0.693 µM
- cAMP activity in hGPR65-expressing cells (hGPR65 [5]): dose-dependent activity
